Legend:
[1] = Tmax in 8 hrs fasted healthy human plasma at 200 mg, po administered as single dose of two-100 mg capsules; type: ADME, organism-based
[2] = Tmax in high-fat fed healthy human plasma at 200 mg, po administered as single dose of two-100 mg capsules; type: ADME, organism-based
[3] = AUC (0 to last) in 8 hrs fasted healthy human plasma at 200 mg, po administered as single dose of two-100 mg capsules; type: ADME, organism-based; design: dose 200 mg, route oral, time 0 - last
[4] = AUC (0 to last) in high-fat fed healthy human plasma at 200 mg, po administered as single dose of two-100 mg capsules; type: ADME, organism-based; design: dose 200 mg, time 0 - last, route oral
[5] = AUC (0 to infinity) in 8 hrs fasted healthy human plasma at 200 mg, po administered as single dose of suspension; type: ADME, organism-based; design: dose 200 mg, route oral, time infinity
[6] = AUC (0 to infinity) in 8 hrs fasted healthy human plasma at 200 mg, po administered as single dose of two-100 mg capsules; type: ADME, organism-based; design: dose 200 mg, route oral, time infinity
[7] = Half life in high-fat fed healthy human plasma at 200 mg, po administered as single dose of two-100 mg capsules; type: ADME, organism-based
Homo sapiens [8] = experiment: Ratio of Cmax in 8 hrs fasted healthy human plasma at 200 mg, po administered as single dose of two-100 mg capsules to cmax in 8 hrs fasted healthy human plasma assessed as EDP-420 9-keto level at 200 mg, po administered as single dose of two-100 mg capsules; type: ADME, organism-based; conditions: in vivo
Homo sapiens [9] = experiment: Ratio of Cmax in high-fat fed healthy human plasma at 200 mg, po administered as single dose of two-100 mg capsules to cmax in high-fat fed healthy human plasma assessed as EDP-420 9-keto level at 200 mg, po administered as single dose of two-100 mg capsules; type: ADME, organism-based; conditions: in vivo
Homo sapiens [10] = experiment: Ratio of AUC (0 to infinity) in 8 hrs fasted healthy human plasma at 200 mg, po administered as single dose of suspension to AUC (0 to infinity) in 8 hrs fasted healthy human plasma assessed as EDP-420 9-keto level at 200 mg, po administered as single dose of suspension; type: ADME, organism-based; conditions: in vivo
[11] = AUC (0 to 24 hrs) in Epithelial lining fluid of healthy human at 400 mg, po administered as single dose; type: ADME, organism-based; conditions: read-out: Drug uptake
[12] = AUC (0 to 24 hrs) in Alveolar macrophage of healthy human at 400 mg, po administered as single dose; type: ADME, organism-based; conditions: alveolar macrophages, read-out: Drug uptake
[13] = Ratio of AUC (0 to 24 hrs) in epithelial lining fluid of healthy human to AUC (0 to 24 hrs) in healthy human plasma at 400 mg, po administered as single dose; type: ADME, organism-based
[14] = Drug concentration in Epithelial lining fluid of healthy human at 400 mg, po administered as single dose after 24 hrs; type: ADME, organism-based; conditions: read-out: Drug uptake
[15] = Drug concentration in Alveolar macrophage of healthy human at 400 mg, po administered as single dose after 24 hrs; type: ADME, organism-based; conditions: alveolar macrophages, read-out: Drug uptake
[16] = Ratio of drug concentration in Epithelial lining fluid of healthy human at 400 mg, po administered as single dose after 24 hrs to drug concentration in Epithelial lining fluid of healthy human at 500 mg, po administered as single dose after 24 hrs; type: ADME, organism-based; conditions: in vivo
[17] = Ratio of drug concentration in Alveolar macrophage of healthy human at 400 mg, po administered as single dose after 24 hrs to drug concentration in Alveolar macrophage of healthy human at 500 mg, po administered as single dose after 24 hrs; type: ADME, organism-based; conditions: in vivo
Homo sapiens [18] = experiment: Ratio of AUC (0 to 24 hrs) in healthy human plasma at 200 mg, po once daily for 3 days measured after 3 days to AUC (0 to 24 hrs) in healthy human plasma at 200 mg, po once daily for 3 days measured after 1 day; type: ADME, organism-based; conditions: in vivo
Homo sapiens [19] = experiment: Toxicity in healthy human assessed as occurrence of mortality at 200 mg, po once daily for 3 days; type: organism-based; conditions: in vivo, 72 h
Homo sapiens [20] = experiment: Toxicity in healthy human assessed as occurrence of mortality at 400 mg administered once on day 1 followed by 200 mg once daily for 2 days during 3 days of treatment; type: organism-based; conditions: in vivo
Homo sapiens [21] = experiment: Toxicity in healthy human assessed as incidence of severe adverse events at 200 mg, po once daily for 3 days; type: organism-based; conditions: in vivo, 72 h
Homo sapiens [22] = experiment: Toxicity in healthy human in 8 hrs fasted healthy human assessed as incidence of severe adverse events at 200 mg, po administered as single dose of two-100 mg capsules; type: organism-based; conditions: in vivo
Homo sapiens [23] = experiment: Toxicity in high-fat fed healthy human assessed as incidence of severe adverse events at 200 mg, po administered as single dose of two-100 mg capsules; type: organism-based; conditions: in vivo
Homo sapiens [24] = experiment: Toxicity in healthy human in 8 hrs fasted healthy human assessed as changes in vital signs at 200 mg, po administered as single dose of suspension; type: organism-based; conditions: in vivo
Homo sapiens [25] = experiment: Toxicity in healthy human in 8 hrs fasted healthy human assessed as changes in vital signs at 200 mg, po administered as single dose of two-100 mg capsules; type: organism-based; conditions: in vivo
Homo sapiens [26] = experiment: Toxicity in healthy human in 8 hrs fasted healthy human assessed as changes in ECG at 200 mg, po administered as single dose of suspension; type: organism-based; conditions: in vivo
Homo sapiens [27] = experiment: Toxicity in healthy human in 8 hrs fasted healthy human assessed as changes in physical examinations at 200 mg, po administered as single dose of suspension; type: organism-based; conditions: in vivo
Homo sapiens [28] = experiment: Toxicity in healthy human in 8 hrs fasted healthy human assessed as changes in physical examinations at 200 mg, po administered as single dose of two-100 mg capsules; type: organism-based; conditions: in vivo
Homo sapiens [29] = experiment: Toxicity in high-fat fed healthy human assessed as changes in physical examinations at 200 mg, po administered as single dose of two-100 mg capsules; type: organism-based; conditions: in vivo
[30] = Cmax in healthy human plasma at 200 mg, po once daily for 3 days measured after 3 days; type: ADME, organism-based; design: dose 200 mg, route oral
[31] = Tmax in healthy human plasma at 200 mg, po once daily for 3 days measured after 1 day; type: ADME, organism-based
Homo sapiens [32] = experiment: Ratio of AUC (0 to 24 hrs) in healthy human plasma at 200 mg, po once daily for 3 days measured on day 3 to AUC (0 to 24 hrs) in healthy human plasma at 200 mg, po once daily for 3 days measured on day 1; type: ADME, organism-based; conditions: in vivo
[33] = Half life in healthy human plasma at 200 mg, po once daily for 3 days measured after 3 days; type: ADME, organism-based
[34] = Tmax in healthy human plasma at loading dose of 400 mg/day, po once daily for 3 days measured after 1 day; type: ADME, organism-based
[35] = Cmax in healthy human plasma at 400 mg administered once on day 1 followed by 200 mg once daily for 2 days during 3 days of treatment measured after 3 days; type: ADME, organism-based; design: dose 400 mg
[36] = Half life in healthy human plasma at 400 mg administered once on day 1 followed by 200 mg once daily for 2 days during 3 days of treatment measured after 3 days; type: ADME, organism-based
[37] = Cmax in 8 hrs fasted healthy human plasma at 200 mg, po administered as single dose of suspension; type: ADME, organism-based; design: dose 200 mg, route oral
[38] = Cmax in 8 hrs fasted healthy human plasma at 200 mg, po administered as single dose of two-100 mg capsules; type: ADME, organism-based; design: dose 200 mg, route oral
[39] = Cmax in high-fat fed healthy human plasma at 200 mg, po administered as single dose of two-100 mg capsules; type: ADME, organism-based; design: dose 200 mg, route oral

CC[C@H]1OC(=O)[C@H](C)C(=O)[C@H](C)[C@@H](O[C@@H]2O[C@H](C)C[C@H](N(C)C)[C@H]2O)[C@@]2(C)C[C@@H](C)/C(=N\C(C)=O)[C@H](C)[C@@H](OC/C(=N\OCc3ccc(-n4cccn4)nc3)CO2)[C@]1(C)O [MODITHROMYCIN]
Tmax [1]: 3.5 h | Tmax [2]: 4 h | AUC(0-t) [3]: 8.94 µg·h/mL | AUC(0-t) [4]: 8.94 µg·h/mL | AUC(0-inf) [5]: 8.35 µg·h/mL | AUC(0-inf) [6]: 9.03 µg·h/mL | half-life [7]: 16.9 h | Ratio (Homo sapiens [8]): 0.058 | Ratio (Homo sapiens [9]): 0.092 | Ratio (Homo sapiens [10]): 0.101 | AUC [11]: 212 µg·h/mL | AUC [12]: 2560 µg·h/mL | Kp [13]: 20.3 | concentration at 24 h [14]: 6500 ng/mL | concentration at 24 h [15]: 68000 ng/mL | Ratio [16]: > 72 | Ratio [17]: > 2 | Ratio AUC (Homo sapiens [18]): 1.4 | Activity (Homo sapiens [19]): Non-toxic | Activity (Homo sapiens [20]): Non-toxic | Activity (Homo sapiens [21]): Non-toxic | Activity (Homo sapiens [22]): Non-toxic | Activity (Homo sapiens [23]): Non-toxic | Activity (Homo sapiens [24]): Non-toxic | Activity (Homo sapiens [25]): Non-toxic | Activity (Homo sapiens [26]): Non-toxic | Activity (Homo sapiens [27]): Non-toxic | Activity (Homo sapiens [28]): Non-toxic | Activity (Homo sapiens [29]): Non-toxic | Cmax [30]: 559 ng/mL | Tmax [31]: 3.5 h | Ratio AUC (Homo sapiens [32]): 1.41 | half-life [33]: 17.4 h | Tmax [34]: 4 h | Cmax [35]: 514 ng/mL | half-life [36]: 17.7 h | Cmax [37]: 381 ng/mL | Cmax [38]: 405 ng/mL | Cmax [39]: 394 ng/mL

Source: ChEMBL document CHEMBL1687734, “Pharmacokinetics of EDP-420 after multiple oral doses in healthy adult volunteers and in a bioequivalence study” (Antimicrob Agents Chemother, 2009)
